Measured values as given in ChEMBL document CHEMBL1268881, “Peripheral but crucial: a hydrophobic pocket (Tyr(706), Leu(337), and Met(336)) for potent and selective inhibition of neuronal nitric oxide synthase” (Bioorg Med Chem Lett, 2010).

What was measured:
[1] = target: T1, Nitric oxide synthase, inducible (Mus musculus, UniProt P29477); experiment: Inhibition of mouse iNOS expressed in Escherichia coli assessed as inhibition of nitric oxide formation by hemoglobin capture assay
T1 sequence (P29477 whole entry): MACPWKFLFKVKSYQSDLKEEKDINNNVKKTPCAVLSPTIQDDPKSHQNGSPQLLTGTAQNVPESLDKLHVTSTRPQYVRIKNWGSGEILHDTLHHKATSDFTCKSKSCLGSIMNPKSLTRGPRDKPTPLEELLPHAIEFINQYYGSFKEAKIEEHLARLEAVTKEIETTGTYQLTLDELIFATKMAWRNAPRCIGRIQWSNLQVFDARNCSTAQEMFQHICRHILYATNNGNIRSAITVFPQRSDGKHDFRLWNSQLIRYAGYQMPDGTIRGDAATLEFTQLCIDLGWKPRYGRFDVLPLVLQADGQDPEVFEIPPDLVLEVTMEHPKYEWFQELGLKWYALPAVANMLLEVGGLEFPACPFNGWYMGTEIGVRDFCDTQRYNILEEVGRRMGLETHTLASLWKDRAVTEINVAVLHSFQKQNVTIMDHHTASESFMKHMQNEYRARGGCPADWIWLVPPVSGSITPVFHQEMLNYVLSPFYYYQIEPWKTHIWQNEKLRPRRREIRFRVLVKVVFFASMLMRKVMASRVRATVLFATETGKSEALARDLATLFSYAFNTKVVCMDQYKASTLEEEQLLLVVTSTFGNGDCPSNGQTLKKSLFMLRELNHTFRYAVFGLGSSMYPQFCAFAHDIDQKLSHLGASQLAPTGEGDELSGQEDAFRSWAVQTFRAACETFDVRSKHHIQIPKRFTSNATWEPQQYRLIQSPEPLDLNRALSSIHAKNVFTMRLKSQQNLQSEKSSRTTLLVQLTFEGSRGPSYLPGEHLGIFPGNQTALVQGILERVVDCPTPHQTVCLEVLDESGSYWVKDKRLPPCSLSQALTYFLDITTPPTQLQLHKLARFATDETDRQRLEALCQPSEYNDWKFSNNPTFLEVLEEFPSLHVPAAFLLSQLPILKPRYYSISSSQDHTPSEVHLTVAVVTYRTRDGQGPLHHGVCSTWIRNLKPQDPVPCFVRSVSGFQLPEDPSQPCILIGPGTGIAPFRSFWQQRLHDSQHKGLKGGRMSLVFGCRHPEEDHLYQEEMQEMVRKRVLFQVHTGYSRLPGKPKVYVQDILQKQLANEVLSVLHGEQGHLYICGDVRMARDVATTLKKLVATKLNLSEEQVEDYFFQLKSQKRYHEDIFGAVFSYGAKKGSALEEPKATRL

Nitric oxide synthase 3 = target: T2, Nitric oxide synthase 3 (Bos taurus, UniProt P29473)
T2 sequence (P29473 whole entry): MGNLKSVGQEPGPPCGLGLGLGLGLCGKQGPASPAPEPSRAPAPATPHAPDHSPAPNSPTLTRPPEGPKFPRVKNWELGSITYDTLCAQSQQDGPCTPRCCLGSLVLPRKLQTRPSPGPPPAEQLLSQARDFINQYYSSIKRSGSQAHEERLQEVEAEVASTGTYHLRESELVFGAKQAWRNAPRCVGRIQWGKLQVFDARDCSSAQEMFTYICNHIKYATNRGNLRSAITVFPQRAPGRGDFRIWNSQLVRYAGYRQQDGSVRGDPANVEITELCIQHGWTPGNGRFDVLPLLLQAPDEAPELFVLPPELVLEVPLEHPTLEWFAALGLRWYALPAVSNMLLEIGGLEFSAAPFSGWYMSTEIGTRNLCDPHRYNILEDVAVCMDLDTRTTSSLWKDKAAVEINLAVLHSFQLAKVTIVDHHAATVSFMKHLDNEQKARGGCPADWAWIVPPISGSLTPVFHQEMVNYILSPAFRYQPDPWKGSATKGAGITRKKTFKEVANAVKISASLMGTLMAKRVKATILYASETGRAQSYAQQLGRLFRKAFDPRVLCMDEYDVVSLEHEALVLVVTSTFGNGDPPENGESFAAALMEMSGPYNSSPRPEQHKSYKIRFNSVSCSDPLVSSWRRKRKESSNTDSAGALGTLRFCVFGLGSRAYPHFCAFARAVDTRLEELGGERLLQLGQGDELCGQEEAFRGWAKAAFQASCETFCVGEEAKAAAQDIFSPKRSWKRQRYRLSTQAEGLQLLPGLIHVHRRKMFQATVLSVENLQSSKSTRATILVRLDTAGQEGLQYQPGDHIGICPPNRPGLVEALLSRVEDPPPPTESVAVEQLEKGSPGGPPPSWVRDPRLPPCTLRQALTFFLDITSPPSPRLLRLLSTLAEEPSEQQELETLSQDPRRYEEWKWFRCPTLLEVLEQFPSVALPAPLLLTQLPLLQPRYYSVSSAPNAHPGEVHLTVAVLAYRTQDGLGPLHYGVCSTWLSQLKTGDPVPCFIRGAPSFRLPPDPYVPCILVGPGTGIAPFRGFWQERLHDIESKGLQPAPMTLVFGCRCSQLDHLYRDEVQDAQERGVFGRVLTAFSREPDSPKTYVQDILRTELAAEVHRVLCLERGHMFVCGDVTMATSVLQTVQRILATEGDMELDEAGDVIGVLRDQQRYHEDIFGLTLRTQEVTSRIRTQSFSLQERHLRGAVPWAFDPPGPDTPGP
Description: Inhibition of bovine eNOS expressed in Escherichia coli assessed as inhibition of nitric oxide formation by hemoglobin capture assay

Nitric oxide synthase 1 [2] = target: Nitric oxide synthase 1 (Rattus norvegicus, UniProt P29476); experiment: Inhibition of rat nNOS expressed in Escherichia coli assessed as inhibition of nitric oxide formation by hemoglobin capture assay
Sequence of Nitric oxide synthase 1 (Rattus norvegicus, UniProt P29476) (P29476 whole entry): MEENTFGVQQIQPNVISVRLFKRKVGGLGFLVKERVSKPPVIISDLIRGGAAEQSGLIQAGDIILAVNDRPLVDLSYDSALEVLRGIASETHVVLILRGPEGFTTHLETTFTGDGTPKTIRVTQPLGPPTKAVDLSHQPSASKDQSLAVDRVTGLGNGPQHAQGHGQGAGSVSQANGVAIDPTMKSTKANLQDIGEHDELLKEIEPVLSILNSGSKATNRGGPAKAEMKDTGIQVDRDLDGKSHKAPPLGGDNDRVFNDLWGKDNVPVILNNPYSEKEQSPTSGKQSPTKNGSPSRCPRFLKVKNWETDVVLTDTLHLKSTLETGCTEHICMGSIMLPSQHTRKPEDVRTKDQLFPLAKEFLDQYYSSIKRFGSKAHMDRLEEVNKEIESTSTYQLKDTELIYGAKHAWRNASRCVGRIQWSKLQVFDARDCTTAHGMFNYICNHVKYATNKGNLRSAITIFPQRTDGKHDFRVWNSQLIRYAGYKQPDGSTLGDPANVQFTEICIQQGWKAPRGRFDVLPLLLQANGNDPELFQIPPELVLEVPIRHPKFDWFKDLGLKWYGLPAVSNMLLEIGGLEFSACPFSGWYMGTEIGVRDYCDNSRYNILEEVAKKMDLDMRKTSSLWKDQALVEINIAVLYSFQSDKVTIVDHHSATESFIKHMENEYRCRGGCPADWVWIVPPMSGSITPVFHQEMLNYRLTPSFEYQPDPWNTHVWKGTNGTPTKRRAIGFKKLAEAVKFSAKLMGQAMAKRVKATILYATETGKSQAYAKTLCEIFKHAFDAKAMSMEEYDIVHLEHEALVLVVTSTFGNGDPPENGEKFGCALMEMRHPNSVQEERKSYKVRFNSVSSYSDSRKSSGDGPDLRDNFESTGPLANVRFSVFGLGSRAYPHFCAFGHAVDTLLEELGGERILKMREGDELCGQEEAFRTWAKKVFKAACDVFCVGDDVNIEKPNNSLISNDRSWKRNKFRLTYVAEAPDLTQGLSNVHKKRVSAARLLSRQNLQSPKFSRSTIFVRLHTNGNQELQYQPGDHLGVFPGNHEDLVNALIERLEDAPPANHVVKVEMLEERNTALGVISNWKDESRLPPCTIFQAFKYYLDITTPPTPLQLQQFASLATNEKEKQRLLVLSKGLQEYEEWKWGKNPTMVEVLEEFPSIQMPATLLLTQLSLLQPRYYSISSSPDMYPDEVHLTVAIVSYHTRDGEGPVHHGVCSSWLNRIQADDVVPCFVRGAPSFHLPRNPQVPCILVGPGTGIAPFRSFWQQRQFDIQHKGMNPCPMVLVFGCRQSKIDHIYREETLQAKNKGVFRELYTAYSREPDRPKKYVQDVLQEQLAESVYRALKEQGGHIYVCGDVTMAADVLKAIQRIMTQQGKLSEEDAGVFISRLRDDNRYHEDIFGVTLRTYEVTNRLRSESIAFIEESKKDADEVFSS

Nitric oxide synthase 1 [3] = target: Nitric oxide synthase 1 (Homo sapiens, UniProt P29475); experiment: Inhibition of human nNOS expressed in Escherichia coli assessed as inhibition of nitric oxide formation by hemoglobin capture assay
Sequence of Nitric oxide synthase 1 (Homo sapiens, UniProt P29475) (P29475 whole entry): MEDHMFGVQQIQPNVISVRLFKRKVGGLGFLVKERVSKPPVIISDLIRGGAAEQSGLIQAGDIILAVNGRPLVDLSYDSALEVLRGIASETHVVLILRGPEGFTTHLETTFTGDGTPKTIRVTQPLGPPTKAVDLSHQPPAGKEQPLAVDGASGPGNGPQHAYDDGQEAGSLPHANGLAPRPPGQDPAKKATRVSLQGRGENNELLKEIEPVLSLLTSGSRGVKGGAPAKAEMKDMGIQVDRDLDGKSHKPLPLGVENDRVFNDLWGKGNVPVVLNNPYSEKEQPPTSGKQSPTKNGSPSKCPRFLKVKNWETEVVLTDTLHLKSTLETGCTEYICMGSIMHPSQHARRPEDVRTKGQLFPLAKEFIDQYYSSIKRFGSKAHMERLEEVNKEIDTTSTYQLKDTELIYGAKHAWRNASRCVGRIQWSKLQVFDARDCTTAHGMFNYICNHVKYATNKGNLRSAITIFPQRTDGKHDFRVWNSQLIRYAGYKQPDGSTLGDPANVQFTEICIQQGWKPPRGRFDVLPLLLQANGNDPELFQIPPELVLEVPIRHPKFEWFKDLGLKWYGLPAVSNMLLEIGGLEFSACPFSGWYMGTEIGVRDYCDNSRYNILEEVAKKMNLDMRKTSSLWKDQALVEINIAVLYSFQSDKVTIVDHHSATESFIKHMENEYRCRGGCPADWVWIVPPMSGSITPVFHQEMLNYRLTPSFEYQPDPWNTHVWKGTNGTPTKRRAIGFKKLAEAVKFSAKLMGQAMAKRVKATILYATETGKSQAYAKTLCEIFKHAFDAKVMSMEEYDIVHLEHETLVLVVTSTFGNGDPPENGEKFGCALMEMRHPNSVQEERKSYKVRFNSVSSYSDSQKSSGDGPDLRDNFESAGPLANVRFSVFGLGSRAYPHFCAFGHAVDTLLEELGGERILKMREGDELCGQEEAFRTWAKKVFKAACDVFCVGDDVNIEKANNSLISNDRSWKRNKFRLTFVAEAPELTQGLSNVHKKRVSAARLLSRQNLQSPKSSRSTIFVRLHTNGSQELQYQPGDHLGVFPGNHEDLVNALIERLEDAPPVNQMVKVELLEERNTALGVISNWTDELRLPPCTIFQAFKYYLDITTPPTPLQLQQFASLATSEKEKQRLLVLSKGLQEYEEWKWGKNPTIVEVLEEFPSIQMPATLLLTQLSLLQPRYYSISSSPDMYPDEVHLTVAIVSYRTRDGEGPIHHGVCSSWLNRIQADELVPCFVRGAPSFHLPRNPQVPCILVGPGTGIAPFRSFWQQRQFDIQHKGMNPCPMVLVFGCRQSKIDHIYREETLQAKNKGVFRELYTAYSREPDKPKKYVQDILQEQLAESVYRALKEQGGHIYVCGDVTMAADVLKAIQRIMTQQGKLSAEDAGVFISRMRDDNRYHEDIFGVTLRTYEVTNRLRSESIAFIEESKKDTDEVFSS

Ki [1] | Ki (Nitric oxide synthase 3) | Ki (Nitric oxide synthase 1 [2]) | Ki (Nitric oxide synthase 1 [3]) | Compound
10 µM | 58 µM | 0.05 µM | 0.29 µM | Nc1cccc(C[C@@H]2CNC[C@@H]2OCCNCCc2cccc(F)c2)n1
13.2 µM | 59 µM | 0.22 µM | 1.8 µM | Nc1cccc(C[C@H]2CNC[C@H]2OCCNCCc2cccc(F)c2)n1
21.8 µM | 58 µM | 0.11 µM | 0.49 µM | NC1=NC(C[C@@H]2CNC[C@@H]2OCCNCCc2cccc(F)c2)CCC1 (stereo partly drawn)
– | – | – | 0.05 µM | Cc1cc(N)nc(C[C@@H]2CNC[C@@H]2OCCNCCc2cccc(F)c2)c1
